According to ChEMBL document CHEMBL4814036, “Synthesis and anti-fibrotic effects of santamarin derivatives as cytotoxic agents against hepatic stellate cell line LX2” (Bioorg Med Chem Lett, 2021):
Values after ≈ are worked out from the molar mass of the structure shown. Active and inactive are the calls of the source. The rule behind the calls is not given here.

Columns and labels:
[1] = Cytotoxicity against human LX2 cells assessed as reduction in cell viability by MTT assay; type: functional, cell-based; conditions: LX-2
[2] = Inhibition of collagen type 1 deposition in human LX2 cells; type: functional, cell-based; conditions: lx-2
[3] = Inhibition of hyaluronic acid deposition in human LX2 cells; type: functional, cell-based; conditions: lx-2
[4] = Inhibition of laminin deposition in human LX2 cells; type: functional, cell-based; conditions: lx-2
[5] = Potency index, ratio of STM IC50 to test compound IC50 for inhibition of hyaluronic acid deposition in human LX2 cells; type: functional, LX-2
[6] = Potency index, ratio of STM IC50 to test compound IC50 for inhibition of laminin deposition in human LX2 cells; type: functional, LX-2
[7] = Potency index, ratio of STM IC50 to test compound IC50 for cytotoxicity against human LX2 cells; type: functional, LX-2
[8] = Cytotoxicity against human LX2 cells assessed as reduction in cell viability incubated for 48 hrs by MTT assay; type: functional, cell-based; conditions: LX-2, 48 h
MCF7 = assay: Growth inhibition of human MCF7 cells incubated for 72 hrs by methylene blue staining based assay; type: functional, cell-based; conditions: MCF7, 72 h
L1210 = assay: Growth inhibition of mouse L1210 cells incubated for 24 to 48 hrs by trypan blue exclusion assay; type: functional, cell-based
KB = assay: Growth inhibition of human KB cells incubated for 72 hrs by methylene blue staining based assay; type: functional, cell-based
LS174T = assay: Growth inhibition of human LS174T cells incubated for 72 hrs by methylene blue staining based assay; type: functional, cell-based
[9] = Inhibition of collagen type 1 deposition in human LX2 cells incubated for 72 hrs by ELISA; type: functional, cell-based; conditions: lx-2
[10] = Inhibition of hyaluronic acid deposition in human LX2 cells incubated for 72 hrs by ELISA; type: functional, cell-based; conditions: lx-2
[11] = Inhibition of laminin deposition in human LX2 cells incubated for 72 hrs by ELISA; type: functional, cell-based; conditions: lx-2
CCRF-CEM = assay: Growth inhibition of human CCRF-CEM cells incubated for 24 to 48 hrs by trypan blue exclusion assay; type: functional, cell-based
LX-2 = assay: Cytotoxicity against human LX2 cells assessed as reduction in cell viability at 100 uM by MTT assay; type: functional, cell-based

C=C1C(=O)O[C@@H]2[C@H]3C(C)=CC[C@@H](OC(=O)/C=C/c4ccccc4C(F)(F)F)[C@]3(C)CC[C@@H]12
IC50 [1]: 16.5 µM

C=C1C(=O)O[C@@H]2[C@H]3C(C)=CC[C@@H](OC(=O)c4cccnc4)[C@]3(C)CC[C@@H]12
IC50 [1]: 27.6 µM

C=C1C(=O)O[C@@H]2[C@H]3C(C)=CC[C@@H](OC(=O)c4cccc(C(F)(F)F)c4)[C@]3(C)CC[C@@H]12
IC50 [1]: 11.5 µM

C=C1C(=O)O[C@@H]2[C@H]3C(C)=CC[C@@H](OC(=O)c4ccc(C(=O)O[C@@H]5CC=C(C)[C@@H]6[C@H]7OC(=O)C(=C)[C@@H]7CC[C@]65C)cc4)[C@]3(C)CC[C@@H]12
IC50 [1]: 9 µM

C=C1C(=O)O[C@@H]2[C@H]3C(C)=CC[C@@H](OC(=O)CCC(=O)Oc4ccc(-n5cc(C)ccc5=O)cc4)[C@]3(C)CC[C@@H]12
IC50 [1]: 55.9 µM

C=C1C(=O)O[C@@H]2[C@H]3C(C)=CC[C@@H](OC(=O)/C=C/c4ccc(OC(C)=O)cc4)[C@]3(C)CC[C@@H]12
IC50 [1]: 21.5 µM

C=C1C(=O)O[C@@H]2[C@H]3C(C)=CC[C@@H](OC(C)=O)[C@]3(C)CC[C@@H]12
IC50 [1]: 12.3 µM

C=C1C(=O)O[C@@H]2[C@H]3C(C)=CC[C@@H](OC(=O)c4ccc(-n5cc(C)ccc5=O)cc4)[C@]3(C)CC[C@@H]12
IC50 [1]: 55.9 µM

C=C1C(=O)O[C@@H]2[C@H]3C(C)=CC[C@@H](OC(=O)CCCCCCC)[C@]3(C)CC[C@@H]12
IC50 [1]: 32.4 µM

C=C1C(=O)O[C@@H]2[C@H]3C(C)=CCC(=O)[C@]3(C)CC[C@@H]12
IC50 [1]: 44.4 µM

COc1cc([C@H]2Oc3cc([C@H]4Oc5cc(O)cc(O)c5C(=O)[C@@H]4O)ccc3O[C@@H]2CO)ccc1O [SILYBIN A]
IC50 [2]: 51.5 µM | IC50 [3]: 164 µM | IC50 [1]: 151 µM | IC50 [4]: 83.7 µM

C=C1C(=O)O[C@@H]2[C@H]3C(C)=CC[C@@H](OC(=O)/C=C/c4cccc(C(F)(F)F)c4)[C@]3(C)CC[C@@H]12
Ratio IC50 [5]: 3 | Ratio IC50 [6]: 3 | Ratio IC50 [7]: 3 | IC50 [2]: 14.7 µM | IC50 [3]: 21.2 µM | IC50 [1]: 6.4 µM | IC50 [4]: 7.3 µM

C=C1C(=O)O[C@@H]2[C@H]3C(C)=CC[C@@H](OC(=O)/C=C/c4c(F)c(F)c(F)c(F)c4F)[C@]3(C)CC[C@@H]12
Ratio IC50 [5]: 8 | Ratio IC50 [6]: 6 | Ratio IC50 [7]: 4 | IC50 [2]: 6.1 µM | IC50 [3]: 7.6 µM | IC50 [1]: 4.6 µM | IC50 [4]: 3.3 µM

C=C1[C@H](O)C[C@@H](O)[C@]2(C)CC[C@H]3C(=C)C(=O)O[C@@H]3[C@@H]12
IC50 [1]: 43.3 µM

C=C1C(=O)O[C@@H]2[C@@H]3[C@@](C)(CC[C@@H]12)[C@H](O)C[C@H]1O[C@@]31C
IC50 [1]: 47.4 µM

C=C1C(=O)O[C@@H]2[C@H]3C(C)=CC[C@@H](O)[C@]3(C)CC[C@@H]12 [SANTAMARIN]
IC50 [8]: 16.5 µM | IC50 (MCF7): 0.16 µg/mL (≈ 0.644 µM) | IC50 (L1210): 0.16 µg/mL (≈ 0.644 µM) | IC50 (KB): 0.16 µg/mL (≈ 0.644 µM) | IC50 (LS174T): 0.16 µg/mL (≈ 0.644 µM) | IC50 [9]: 7.3 µM | IC50 [10]: > 60 µM | IC50 [11]: 18.6 µM | IC50 (CCRF-CEM): 0.16 µg/mL (≈ 0.644 µM)

C=C1C(=O)O[C@@H]2[C@H]3C(C)=CC[C@@H](OC(=O)C4CCCC4)[C@]3(C)CC[C@@H]12
IC50 [1]: 11.9 µM

C=C1C(=O)O[C@@H]2[C@H]3C(C)=CC[C@@H](OC(=O)c4cccs4)[C@]3(C)CC[C@@H]12
IC50 [1]: 31.3 µM

C=C1C(=O)O[C@@H]2[C@H]3C(C)=CC[C@@H](OC(=O)c4ccccc4)[C@]3(C)CC[C@@H]12
IC50 [1]: 16.9 µM

C=C1C(=O)O[C@@H]2[C@H]3C(C)=CC[C@@H](OC(=O)/C=C/c4ccccc4)[C@]3(C)CC[C@@H]12
IC50 [1]: 17.6 µM

C=C1C(=O)O[C@@H]2[C@H]3C(C)=CC[C@@H](OC(=O)/C=C/c4ccc(C=O)cc4)[C@]3(C)CC[C@@H]12
IC50 [1]: 45.5 µM

C=C1C(=O)O[C@@H]2[C@H]3C(C)=CC[C@@H](OC(=O)CCC(=O)O[C@@H]4CC=C(C)[C@@H]5[C@H]6OC(=O)C(=C)[C@@H]6CC[C@]54C)[C@]3(C)CC[C@@H]12
Ratio IC50 [5]: 3 | Ratio IC50 [6]: 3 | Ratio IC50 [7]: 5 | IC50 [2]: 16.2 µM | IC50 [3]: 17.9 µM | IC50 [1]: 3.5 µM | IC50 [4]: 6.6 µM

C=C1C(=O)O[C@@H]2[C@H]3C(C)=CC[C@@H](OC(=O)CCC(=O)O)[C@]3(C)CC[C@@H]12
IC50 [1]: 92 µM

C=C1C(=O)O[C@@H]2[C@H]3C(C)=CC[C@@H](OC(=O)/C=C/c4ccncc4)[C@]3(C)CC[C@@H]12
IC50 [1]: 16.1 µM

C=C1C(=O)O[C@@H]2[C@H]3C(C)=CC[C@@H](OC(=O)/C=C/c4ccc(C(F)(F)F)cc4)[C@]3(C)CC[C@@H]12
IC50 [1]: 16.3 µM

C=C1C(=O)O[C@@H]2[C@H]3C(C)=CC[C@@H](OC(=O)/C=C/c4ccc(F)cc4)[C@]3(C)CC[C@@H]12
IC50 [1]: 21 µM

C=C1C(=O)O[C@@H]2[C@H]3C(C)=CC[C@@H](OC(=O)CCCC(=O)O[C@@H]4CC=C(C)[C@@H]5[C@H]6OC(=O)C(=C)[C@@H]6CC[C@]54C)[C@]3(C)CC[C@@H]12
IC50 [1]: 11.1 µM

CC1=CC[C@@H](O)[C@]2(C)CC[C@@H]3[C@H](OC(=O)[C@H]3CN(C)C)[C@@H]12
Activity (LX-2): inactive
